What was measured:
[1] = plasma exposure in HLA-B27/Huβ2m rats; settings: 10 mg/kg daily oral (comparator)
Text: In each disease model, steady-state pharmacokinetics were characterized.

[2] = test system: Ankylosing spondylitis in HLA B27 Tg rat; test: HLA-B27/Huβ2m transgenic rat model of ankylosing spondylitis
Text: Etanercept and tofactinib (Balagué et al. Profiling of dihydroorotate dehydrogenase, p38 and JAK inhibitors in the rat adjuvant-induced arthritis model: a translational study. Br J Pharmacol. 2012 June; 166(4):1320-32) were included in this rat study as comparator molecules.

Compound | AUCLST [1] | Paw Swelling Inhibition (%) ([2]; 10 mg/kg daily oral gavage (comparator)) | Paw Swelling Inhibition (%) ([2]; 10 mg/kg twice weekly subcutaneous injection (comparator))
C[C@@H]1CCN(C(=O)CC#N)C[C@@H]1N(C)c1ncnc2[nH]ccc12 [Tofacitinib, tofacitinib, reference compound] | 6540 ng·h/mL | 47% | –
Etanercept | – | – | 42%

From patent US20220251105A1, “METHODS OF TREATING A MK2-MEDIATED DISORDER” (Celgene CAR LLC, priority 2019, published 2022)
